Experimental data: patent publication US20180042227A1, “SYNERGISTIC ANTIMICROBIAL COMPOSITION” (Dow Global Technologies LLC, priority 2015, published 2018)

How the values were obtained:
Assay type in all cases: cell-based
[1] = tested on: Candida Albicans DSM # 1386; assay: Minimum Inhibitory Concentration (MIC) test and synergy index, Candida albicans; details: alone or in the mixture, MEB pH 5.4, 28° C. for 2 days
Procedure: The synergism of the biocides combination of the present invention was determined using the method described by Kull, F. C., et. al in Applied Microbiology 9:538-541 (1961). […] The Minimum Inhibitory Test (MIC) is designed to evaluate the lowest concentration of a biocide, biocide blend or biocide combination to prevent bacteria, yeast, or fungi from growing in a defined broth. After incubation, the samples are rated based on visually detectable turbidity. This test was carried out with a dilution factor of 1.5 for the biocides. • 1. Test samples were prepared in equal volumes in transparent containers. The biocide dilutions were done in tryptic soy broth (TSB) at pH of 7.3 for the bacteria and in malt extract broth (MEB) at pH 5.4 for the fungi strain. • 16 samples per biocide product and species to be tested were prepared in duplicates by serial dilution with a dilution factor of 1.5. • Per strain of micro-organism two samples not containing any biocide was added as a control. • 2. […] Reading was done visually by a growth/no growth rating. […]

[2] = tested on: Pseudomonas aeruginosa DSM # 939; assay: Minimum Inhibitory Concentration (MIC) test and synergy index, Pseudomonas aeruginosa; details: alone or in the mixture, TSB pH 7.3, 30° C. for 2 days
Procedure: (§1) The synergism of the biocides combination of the present invention was determined using the method described by Kull, F. C., et. al in Applied Microbiology 9:538-541 (1961). […] The Minimum Inhibitory Test (MIC) is designed to evaluate the lowest concentration of a biocide, biocide blend or biocide combination to prevent bacteria, yeast, or fungi from growing in a defined broth. After incubation, the samples are rated based on visually detectable turbidity. This test was carried out with a dilution factor of 1.5 for the biocides. • 1. Test samples were prepared in equal volumes in transparent containers. The biocide dilutions were done in tryptic soy broth (TSB) at pH of 7.3 for the bacteria and in malt extract broth (MEB) at pH 5.4 for the fungi strain. • 16 samples per biocide product and species to be tested were prepared in duplicates by serial dilution with a dilution factor of 1.5. • Per strain of micro-organism two samples not containing any biocide was added as a control. • 2. […] After incubation for 1 day at 30° C. the strains were harvested with buffer pH 7.3. • The concentration of cells was assessed by using a standard viable count technique. • For the inoculum, dilutions were made in buffer pH 7.3. • Yeast culture: [table] • 4. Reading was done visually by a growth/no growth rating. […]

[3] = tested on: Staphylococcus Aureus DSM # 799; assay: Minimum Inhibitory Concentration (MIC) test and synergy index, Staphylococcus aureus; details: alone or in the mixture, TSB pH 7.3, 30° C. for 2 days
Procedure: as §1

Q: Which results are given for `CNC(=O)c1ccccc1SSc1ccccc1C(=O)NC` [DTBMA alone, dithio-2,2′-bis-benzmethylamide]?
A: Minimum Concentration (active ppm) to Inhibit Growth, DTBMA ([1]; DTBMA concentration): 148 active ppm; Minimum Concentration (active ppm) to Inhibit Growth, DTBMA ([2]; DTBMA concentration): 222 active ppm; Minimum Concentration (active ppm) to Inhibit Growth, DTBMA ([3]; DTBMA concentration): 20 active ppm

Q: Which results are given for `CCCCCCCCCCCCN(CCCN)CCCN` [Diamine alone, N-(3-Aminopropyl)-N-dodecylpropane-1,3-diamine]?
A: Minimum Concentration (active ppm) to Inhibit Growth, Diamine ([1]; Diamine concentration): 148 active ppm; Minimum Concentration (active ppm) to Inhibit Growth, Diamine ([2]; Diamine concentration): 148 active ppm; Minimum Concentration (active ppm) to Inhibit Growth, Diamine ([3]; Diamine concentration): 44 active ppm
